The values that follow come from patent US12319939B2, “Carbonyl reductase mutant and its application” (priority 2023, dated 2025).

As a reminder, the Km is the concentration of substrate that gives half-maximal velocity.

In series [1] the test system is CCOC(=O)CCCCC(=O)CCCl. The series is described as follows: Enzyme kinetic parameters (NADPH consumption at 340 nm), double mutant. The settings on record: other: R129L/D210T, substrate 0.1-10 mM, PB pH 7.0, 30° C. It counts as biochemical, Candida orthopsilosis Co 90-125. An excerpt:
(§1) The present disclosure starts with the substrate channel of the carbonyl reductase protein structure of Candida orthopsilosis Co 90-125 (amino acid sequence as shown in SEQ ID NO: 1) with ID XP 003867714.1 in Genbank, analyzes the entrance segment and internal structural characteristics of the substrate channel, and performs iterative saturation mutagenesisit through semi-rational design, so as to determine that the key factor affecting the initial enzymatic properties of carbonyl reductase is the amino acids at positions R129, D210 and S126. […] On this basis, serine (Ser) at position 126 is replaced with alanine (Ala), to obtain the triple mutant R129L/D210T/S126A (amino acid sequence as shown in SEQ ID NO: 5).
(§2) The double mutation R129L/D210T changed the codons 385-387 of the carbonyl reductase gene sequence from CGT to CTG, thereby replacing the 129th position of the amino acid sequence from arginine (R) to leucine (L); changed the codons 628-630th position from GAT to ACC, thereby the 210th position of the amino acid sequence from aspartic acid (D) to threonine (T), to obtain an enzyme mutant, wherein its amino acid sequence is shown in SEQ ID NO: 3, and the nucleotide sequence of the coding gene is shown in SEQ ID NO: 4.
(§3) One enzyme activity unit U is defined as the amount of enzyme required to consume 1 μmol NADPH within 1 minute.
(§4) The substrate concentration was set to be 0.1-10 mM, and the rest was the same enzyme activity determination system and reaction conditions as described above.

Series [2] concerns CCOC(=O)CCCCC(=O)CCCl. Description: Enzyme kinetic parameters (NADPH consumption at 340 nm), triple mutant. Conditions: other: R129L/D210T/S126A, substrate 0.1-10 mM, PB pH 7.0, 30° C. Type of series: biochemical, Candida orthopsilosis Co 90-125.
Text: as §1
(§5) While the triple mutation changed from AGC to GCG at codons 376-378 of the carbonyl reductase double mutant gene sequence, thereby replacing serine(S) with alanine (A) at position 126 of the amino acid sequence, to obtain a triple mutant, wherein its amino acid sequence is shown in SEQ ID NO: 5, and the nucleotide sequence of the coding gene is shown in SEQ ID NO: 6.
as §3, §4

Series [3] addresses Candida orthopsilosis Co 90-125 carbonyl reductase CoCR 13 variant R129L/D210T, SEQ ID NO: 3 (Lodderomyces orthopsilosis, UniProt H8WZT2, D210T/R129L). Description: Enzyme kinetic parameters (NADPH consumption at 340 nm), double mutant. Type of series: biochemical.
Text: as §1, §2, §3, §4

The target in series [4] is Candida orthopsilosis Co 90-125 carbonyl reductase CoCR 13 variant R129L/D210T/S126A, SEQ ID NO: 5 (Lodderomyces orthopsilosis, UniProt H8WZT2, D210T/R129L/S126A). Description: Enzyme kinetic parameters (NADPH consumption at 340 nm), triple mutant. Type of series: biochemical.
Text: as §1, §5, §3, §4

The target in series [5] is Candida orthopsilosis Co 90-125 carbonyl reductase CoCR 13 (Genbank XP_003867714.1), wild type (WT), SEQ ID NO: 1 (Lodderomyces orthopsilosis, UniProt H8WZT2). Description: Enzyme kinetic parameters (NADPH consumption at 340 nm), initial carbonyl reductase. Type of series: biochemical.
Text: On this basis, serine (Ser) at position 126 is replaced with alanine (Ala), to obtain the triple mutant R129L/D210T/S126A (amino acid sequence as shown in SEQ ID NO: 5).
Through gene mining, the carbonyl reductase gene with Genbank ID XP_003867714.1 was screened from the NCBI database. The open reading frame of this gene is 1005 bp long, the carbonyl reductase encoded by it consists of 334 amino acids, and its amino acid sequence (334aa) is:
as §3, §4

The mark [6] stands for this setting: R129L/D210T, substrate 0.1-10 mM, NADPH, PB pH 7.0, 30° C.
[7] abbreviates: R129L/D210T/S126A, substrate 0.1-10 mM, NADPH, PB pH 7.0, 30° C.
The mark [8] stands for this setting: WT, substrate 0.1-10 mM, NADPH, PB pH 7.0, 30° C.

Turning to “Candida orthopsilosis Co 90-125 carbonyl reductase CoCR 13 variant R129L/D210T, SEQ ID NO: 3 (Lodderomyces orthopsilosis Co 90-125; D210T/R129L)”, in the series with CCOC(=O)CCCCC(=O)CCCl [1], the Km worked out at 1740 ± 160 µM.

As for “Candida orthopsilosis Co 90-125 carbonyl reductase CoCR 13 variant R129L/D210T/S126A, SEQ ID NO: 5 (Lodderomyces orthopsilosis Co 90-125; D210T/R129L/S126A)”, in the series with CCOC(=O)CCCCC(=O)CCCl [2], the Michaelis constant (Km) amounted to 810 ± 110 µM.

Regarding `CCOC(=O)CCCCC(=O)CCCl` [8-chloro-6-oxooctanoic acid ethyl ester], the values for the Relative catalytic efficiency in series [3] (R129L/D210T relative to WT), in series [4] (R129L/D210T/S126A relative to WT) and in series [5] (WT as reference (1.00)) were 31.65, 93.42 and 1.00, respectively. In addition, the “Catalytic efficiency (kcat/Km)” value in series [3] (setting [6]) was found to be 29120 M⁻¹ s⁻¹; in series [4] (setting [7]), 85950 M⁻¹ s⁻¹; in series [5] (setting [8]), 920 M⁻¹ s⁻¹. Also, the figures for the “Number of conversions (kcat)” value in series [3] (setting [6]), in series [4] (setting [7]) and in series [5] (setting [8]) were 50.60 ± 1.49 s⁻¹, 69.46 ± 2.50 s⁻¹ and 4.7 ± 0.33 s⁻¹, respectively. Further, the “catalytic efficiency increase compared to the initial carbonyl reductase” value in series [3] (double mutant vs initial carbonyl reductase) worked out at 31.65 times; in series [4] (triple mutant vs initial carbonyl reductase) it was 93.42 times.
